Measured values: US6391907B1, “Indoline derivatives” (American Home Products Corporation, priority 1999, dated 2002)
Values joined by “and” are separate entries in the source; they are usually repeats but may differ in a detail not shown here. Equal values may be shown once.

Tests used:
T47D cells = assay: T47D cell proliferation assay (BrdU incorporation); type: cell-based; details: half-maximal increase in BrdU incorporation, individual studies
Protocol: 3. T47D Cell Proliferation Assay
The objective of this assay is the determination of progestational and antiprogestational potency by using a cell proliferation assay in T47D cells. A compound's effect on DNA synthesis in T47D cells is measured.
DMEM:F12 (1:1) (GIBCO, BRL) supplemented with 10% (v/v) fetal bovine serum (not heat-inactivated), 100 U/ml penicillin, […], and 2 mM GlutaMax (GIBCO, BRL).
Minimum Essential Medium (MEM) (#51200-038GIBCO, BRL) phenol red-free supplemented with 0.5% charcoal stripped fetal bovine serum, 100 U/ml penicillin, 200 mg/ml streptomycin, and 2 mM GlutaMax (GIBCO, BRL).
Stock T47 D cells are maintained in growth medium For BrdU incorporation assay, cells are plated in 96-well plates (Falcon, Becton Dickinson Labware) at 10,000 cells/well in growth medium. […]
At the end of BrdU labeling, the medium is removed and BrdU incorporation is measured using a cell proliferation ELISA kit (#RPN 250, Amersham Life Science) according to manufacturer's instructions. […] Then 25 μl of 1 M sulfuric acid is added to each well to stop color reaction and optical density is read in a plate reader at 450 nm within 5 min.
Square root-transformed data are used for analysis of variance and nonlinear dose response curve fitting for both agonist and antagonist modes. […] EC50 or IC50 values are calculated from the retransformed values. […]

[1] = system: rat uterine decidualization; assay: Rat decidualization assay; type: in vivo; details: for EC50: s.c., half-maximal increase in decidual response (uterine wet weight), ovariectomized rats, individual studies; for inhibition in vivo at 3 mg/kg / inhibition in vivo at 10 mg/kg: read-out: Decid. IC50 mg/kg
Protocol: 1. Rat Decidualization Assay
The animals are treated once daily for seven days.
Uteri are removed and trimmed of fat.
Decidual response: [(D-C)/C]×100%

[2] = biological target: T1, A-form of the human progesterone receptor (Homo sapiens, UniProt P06401); assay: hPR binding assay (competitive radioligand binding)
T1 sequence (P06401 1-769 isoform P06401-2): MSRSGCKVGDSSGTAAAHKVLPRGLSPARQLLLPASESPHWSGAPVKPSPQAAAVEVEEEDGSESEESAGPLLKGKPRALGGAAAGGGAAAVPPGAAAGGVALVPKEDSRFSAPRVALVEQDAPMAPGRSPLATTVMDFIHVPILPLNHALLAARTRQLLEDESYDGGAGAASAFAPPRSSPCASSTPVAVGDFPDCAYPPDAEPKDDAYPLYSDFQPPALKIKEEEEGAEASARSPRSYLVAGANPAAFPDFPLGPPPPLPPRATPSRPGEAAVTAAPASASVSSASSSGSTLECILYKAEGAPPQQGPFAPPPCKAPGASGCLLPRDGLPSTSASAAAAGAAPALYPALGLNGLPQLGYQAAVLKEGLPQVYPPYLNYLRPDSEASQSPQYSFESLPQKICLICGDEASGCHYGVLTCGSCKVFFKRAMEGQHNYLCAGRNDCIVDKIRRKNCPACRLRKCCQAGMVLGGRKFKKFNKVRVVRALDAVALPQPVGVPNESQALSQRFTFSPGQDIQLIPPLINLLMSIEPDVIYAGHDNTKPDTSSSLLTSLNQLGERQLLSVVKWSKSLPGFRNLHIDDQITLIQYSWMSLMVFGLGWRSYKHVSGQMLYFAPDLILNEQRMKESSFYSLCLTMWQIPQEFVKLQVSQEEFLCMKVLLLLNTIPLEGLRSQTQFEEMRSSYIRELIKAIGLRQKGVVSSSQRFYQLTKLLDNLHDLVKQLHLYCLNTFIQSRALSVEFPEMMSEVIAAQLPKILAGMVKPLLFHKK

[3] = @ 3 mg/kg, rat decidualization, antiprogestational mode
[4] = rat decidualization, antiprogestational mode

Compound: CC(=O)O[C@]1(C(C)=O)CC[C@H]2[C@@H]3C[C@H](C)C4=CC(=O)CC[C@]4(C)[C@H]3CC[C@@]21C [MPA, medroxyprogesterone acetate]
- EC50 (T47D cells; Homo sapiens, T47D): 0.019 nM

Compound: C#C[C@]1(O)CC[C@H]2[C@@H]3CCC4=CC(=O)CC[C@@H]4[C@H]3CC[C@@]21CC [Levonorgestrel]
- EC50 [1]: 0.08 mg/kg and 0.12 mg/kg and 0.09 mg/kg (2×)

Compound: Cc1cc(C#N)sc1-c1ccc2c(c1)C1(CCCC1)C(=O)N2 [Example 73]
- Decid. IC50 mg/kg [1, 3]: 50% @ 3

Compound: C[C@H](O)C(=O)[C@@]1(C)CC[C@H]2[C@@H]3CCC4=CC(=O)CCC4=C3CC[C@@]21C [Trimegestone]
- EC50 (T47D cells): 0.017 nM and 0.014 nM and 0.019 nM

Compound: N#Cc1cccc(-c2ccc3c(c2)C2(CCCC2)C(=O)N3)c1 [Example 77, 5′-(3-Cyanophenyl)-spiro[cyclopentane-1,3′-[3H]indol]-2′(1′H)-one]
- inhibition in vivo at 3 mg/kg [1, 3]: 60%
- melting point: 217 to 219 °C

Compound: C#C[C@]1(O)CC[C@H]2[C@@H]3CCC4=CC(=O)CC[C@@H]4[C@H]3C(=C)C[C@@]21CC [3-Ketodesogestrel]
- EC50 [1]: 0.10 mg/kg and 0.06 mg/kg and 0.11 mg/kg

Compound: CC#C[C@]1(O)CC[C@H]2[C@@H]3CCC4=CC(=O)CCC4=C3[C@@H](c3ccc(N(C)C)cc3)C[C@@]21C [RU486]
- IC50 ([1]; p.o., half-maximal decrease in EC50 progesterone induced decidual response, rats): 0.21 mg/kg and 0.14 mg/kg

Compound: N#Cc1cc(-c2ccc3c(c2)C2(CCCCC2)C(=O)N3)cs1 [Example 34, 4-(1,2-Dihydro-2-oxospiro[cyclohexane-1,3-[3H]indol]-5-yl)-2-thiophenecarbonitrile]
- Ki [2]: 19 nM
- inhibition in vivo at 10 mg/kg [1, 4]: 50%

Compound: Cc1cc(C#N)sc1-c1ccc2c(c1)C1(CCCCC1)C(=O)N2 [Example 36, 4-Methyl-5-(2′-oxo-2′,3′-dihydrospiro[cyclohexane-1,3′-[3H]indol]-5′-yl)-2-thiophene carbonitrile]
- Ki [2]: 4.8 nM
- inhibition in vivo at 10 mg/kg [1, 4]: 50%
- melting point: 200 to 203 °C

Compound: N#Cc1ccc(-c2ccc3c(c2)C2(CCCCC2)C(=O)N3)s1 [Example 35]
- Ki [2]: 22 nM
- inhibition in vivo at 10 mg/kg [1, 4]: 50%
- melting point: 225 to 228 °C

Compound: N#Cc1cc(F)cc(-c2ccc3c(c2)C2(CCCC2)C(=O)N3)c1 [Example 80, 5′-(3-Cyano-5-fluorophenyl)-spiro[cyclopentane-1,3′-[3H]indol]-2′(1′H)-one]
- inhibition in vivo at 3 mg/kg [1, 3]: 70%

Compound: O=C1Nc2ccc(-c3ccc([N+](=O)[O-])[nH]3)cc2C12CCCCC2 [Example 44, 5′-(5-Nitro-1H-pyrrol-2-yl)spiro[cyclohexane-1,3′-[3H]indol]-2′(1′H)-one]
- Ki [2]: 123 nM
- inhibition in vivo at 3 mg/kg [1, 3]: 50%
- melting point: 278 °C (dec.)

Compound: O=C1Nc2ccc(-c3cc(F)cc([N+](=O)[O-])c3)cc2C12CCCCC2 [Example 32, 5-(3-Fluoro-5-nitrophenyl)spiro[cyclohexane-1,3-[3H]indol]-2(1H)-one]
- Ki [2]: 9 nM
- inhibition in vivo at 10 mg/kg [1, 4]: 60%
- melting point: 191 to 193 °C

Compound: CC1(C)C(=O)Nc2ccc(-c3cccc(Cl)c3)cc21 [Example 4, 5-(3-Chloro-phenyl)-3,3-dimethyl-1,3dihydro-indol-2-one]
- melting point: 188 to 189 °C

Compound: N#Cc1cccc(-c2ccc3c(c2)C2(CCCCC2)C(=O)N3)c1 [Example 47]
- inhibition in vivo at 10 mg/kg [1, 4]: 50%
- melting point: 190 to 191 °C

Compound: N#Cc1coc(-c2ccc3c(c2)C2(CCCCC2)C(=O)N3)c1 [Example 40, 5-(1′,2′-Dihydro-2′-oxospiro[cyclohexane-1,3′-[3H]indol]-5′-yl)-3-furancarbonitrile]
- melting point: 243 to 245 °C

Compound: CC#CC1(OC)C(=O)Nc2ccc(-c3cccc(Cl)c3)cc21 (stereo not shown) [Example 9, 5-(3-Chloro-phenyl)-3-methoxy-3-prop-1-ynyl-1,3-dihydro-indol-2-one]
- melting point: > 190 °C (dec.)
